Reference: PMC10045298, “In Vitro Pharmacokinetic Behavior of Antiviral 3-Amidinophenylalanine Derivatives in Rat, Dog and Monkey Hepatocytes” (Biomedicines, 2023)
“Also recorded” adds a separate entry of the source. Like-named read-outs stand apart in the source and are kept apart here.

Assays:
[1] = test system: CYP2C19; conditions: cited from earlier work
[2] = test system: CYP1A2; conditions: cited from earlier work
[3] = test system: human CYP3A4; conditions: cited from earlier work
[4] = test system: SARS-CoV-2; set-up: method as in PMID 32703818; conditions: Calu-3 cells (airway epithelial cells) infected with SARS-CoV-2; cited from earlier work
[5] = test system: CYP2C9; conditions: cited from earlier work
[6] = test system: cynomolgus monkey CYP1A2; conditions: cited from earlier work
[7] = test system: human serum albumin; conditions: cited from earlier work
[8] = test system: cynomolgus monkey primary hepatocytes; assay: Depletion of inhibitors in cynomolgus monkey primary hepatocyte suspension (LC-MS/MS), PK prediction; format: in vitro ADME; conditions: for Depletion of parent compound (in words): cynomolgus monkey hepatocytes, 10 µM, 0-300 min; for Extraction Ratio EH / Classification / Predicted Cl CLH: macaque; for Classification: 0.3 cut-off of E between low and intermediate extraction; for Predicted Cl CLH: fu = 1
Method: (§1) Cryopreserved rat, dog and cynomolgus monkey primary hepatocytes were obtained from Primacyt (Primacyt, Schwerin, Germany). Hepatocytes were thawed using cryopreserved hepatocyte thawing medium (Primacyt, Schwerin, Germany), and cells were centrifuged (10 min, 100× g, 20 °C) to remove supernatants. The viability of hepatocytes was examined by the Trypan blue exclusion method, and it was confirmed that more than 90% of the cells were alive. Cell suspensions were then diluted with serum-free maintenance medium (Primacyt, Schwerin, Germany) after cell counting in Bürker chamber to the appropriate concentration (original concentration of the viable hepatocytes was 10^7 cells/mL).
(§2) Stock solutions of MI-463, MI-472, MI-485 and MI-1900 (10 mM) in dimethyl-sulfoxide were kept at −20 °C. Time courses of the unchanged amount of the inhibitors (in %) after incubation with hepatocytes were measured. Each compound was incubated in cell suspension (at the concentration of 5 × 10^5 cells/mL in 6-well plates) at constant and low-speed shaking at 37 °C in a humid atmosphere containing 5% CO2. […] Cells were incubated with serum-free maintenance medium either without or with each selected MI for 5 h. At various time points (0, 30, 60, 120, 180, and 300 min), the incubation mixtures were sampled (aliquots: 0.15 mL) and terminated by the addition of 0.1 mL ice-cold acetonitrile. The cell debris was separated by centrifugation, and the supernatants were analyzed by LC-MS/MS for quantitation of the remaining amount of the inhibitors.
(§3) For the LC-MS/MS investigations, 120 μL from the incubation mixture samples obtained as described above was removed and mixed with 315 μL chilled acetonitrile and 15 μL triphenylphosphate solution (TPP; 12000 ng/mL in acetonitrile) used as internal standard for the quantitation. After vortex mixing, the samples were centrifuged at 4 °C and 13300 RPM for 10 min. The supernatant was filtered through a PVDF syringe filter of 0.22 μm pore diameter, then transferred to chromatographic vials.
(§4) The LC-MS/MS instrument used for analyzing the MI compounds was a Shimadzu LCMS 8030+ system operated with an electrospray ion source (ESI) in positive multiple reaction monitoring (MRM) mode. A Phenomenex Kinetex C18 EVO 100 × 4.6 mm ID (2.6 µm particle size) column equipped with a 40 × 2 mm C18 guard column was used for the chromatographic separation. Gradient elution was used with eluents “A”: 50 mM ammonium acetate in water (pH 5 set by acetic acid) and “B”: 0.1 v/v% formic acid in acetonitrile. The flow rate was 0.4 mL/min, a chromatographic run took 8 min. The column oven was set to 30 °C, and the autoinjector’s temperature was at 6 °C. The injected volume was 10 µL. Other MS parameters were as follows: interface 4.5 kV; interface temperature 350 °C; desolvation line 300 °C; heat block 400 °C; detector 1.78 kV, nebulizing gas (N2) 3 liters/min, drying gas (N2) 15 liters/min; collision gas (Ar) 230 kPa.
(§5) The intrinsic clearance for hepatocytes (Clint) [mL (min 5 × 10^5 cells) ^−1] was calculated from the decrease in the concentration of MI compounds as follows: Clint = β=ln2/t1/2 [28] For scaling up, the Clint value to obtain Clint per whole liver (g)/bw(kg), the cell concentration in liver, the average liver weight and average body weight parameters were used (Table 1). The value for hepatic clearance (ClH) was calculated as follows: ClH=Clintliver/bw∗fu∗Qplasma/(Clintliver/bw∗fu)+Qplasma where the flow rate of Qplasma = QH* plasma/blood ratio. To calculate ClH, the hepatic flow rate, plasma/blood ratio (Table 1) and fu = 1 values were used. (QH is the hepatic blood flow, while fu is the unbound fraction of the compound.) The hepatic extraction ratio was defined as E = ClH/QH, and the bioavailability (%) was F = (1 − E) * 100 [28, 31, 32, 33].

[9] = as above; format: in vitro ADME; conditions: cynomolgus monkey, cryopreserved primary hepatocytes in suspension; macaque hepatocytes, 10 µM inhibitor, 5 × 10^5 cells/mL, 0-300 min, scaled to liver/bw
Method: as §1, §2, §3, §4, §5

[10] = Depletion of inhibitors in dog primary hepatocyte suspension (LC-MS/MS), PK prediction; format: in vitro ADME; conditions: dog, cryopreserved primary hepatocytes in suspension, dog hepatocytes, 10 µM inhibitor, 5 × 10^5 cells/mL, 0-300 min, scaled to liver/bw
Method: as §1, §2, §3, §4, §5

[11] = test system: dog primary hepatocytes; assay: as above; format: in vitro ADME; conditions: for Extraction Ratio EH / Classification / Predicted Cl CLH: dog; for Depletion of parent compound (in words): 10 µM; for Classification: 0.3 cut-off of E between low and intermediate extraction; for Predicted Cl CLH: fu = 1
Method: as §1, §2, §3, §4, §5

[12] = test system: rat primary hepatocytes; assay: Depletion of inhibitors in rat primary hepatocyte suspension (LC-MS/MS), PK prediction; format: in vitro ADME; conditions: for Extraction Ratio EH / Classification / Predicted Cl CLH: rat; for Classification: 0.3 cut-off of E between low and intermediate extraction; for Predicted Cl CLH: fu = 1
Method: as §1, §2, §3, §4, §5

[13] = as above; format: in vitro ADME; conditions: cryopreserved primary hepatocytes in suspension; rat hepatocytes, 10 µM inhibitor, 5 × 10^5 cells/mL, 0-300 min, scaled to liver/bw
Method: as §1, §2, §3, §4, §5

[14] = molecular target: matriptase; conditions: previous enzyme kinetic measurements, cited from earlier work
[15] = molecular target: TMPRSS2; conditions: competitive inhibition; previous enzyme kinetic measurements; cited from earlier work
[16] = test system: H9N2 influenza virus; conditions: MDCK cells, matriptase-dependent; cited from earlier work
[17] = test system: TMPRSS2; set-up: method as in PMID 35344983; conditions: cited from earlier work
[18] = test system: SARS-CoV-2; set-up: method as in PMID 35344983; conditions: human lung epithelium-derived human airway cells; cited from earlier work
[19] = test system: SARS-CoV-2; set-up: method as in PMID 35344983; conditions: K18-human ACE2 transgenic mouse model; cited from earlier work
[20] = test system: COVID-19; set-up: method as in PMID 35803469; conditions: repurposed drug candidate; cited from earlier work

Row | Structure (SMILES) | Influence on CYP2C19 activity [1] | Influence on CYP1A2 activity [2] | Modulation of human CYP3A4 function [3] | Influence on CYP2C9 activity [5] | Modulation of cynomolgus monkey CYP1A2 [6] | Binding to human serum albumin [7] | Extraction Ratio EH [8] | Classification [8] | Predicted Cl CLH [8] | CLint scaled at 10 µM [9] [mL/min/kg] | CLint scaled at 10 µM [10] [mL/min/kg] | Extraction Ratio EH [11] | Depletion of parent compound (in words) ([11]; dog hepatocytes, 0-300 min) | Classification [11] | Predicted Cl CLH [11] | Extraction Ratio EH [12] | Classification [12] | Predicted Cl CLH [12] | CLint scaled at 10 µM [13] [mL/min/kg] | other results
1 | N=C(N)c1cccc(C[C@H](NS(=O)(=O)c2cccc(-c3ccc(Cl)cc3Cl)c2)C(=O)N2CCC(CCN)CC2)c1.O=C(O)C(F)(F)F.O=C(O)C(F)(F)F [MI-432] | did not influence the activity | did not influence the activity | could modulate | did not influence the activity | could modulate | did not bind to human serum albumin to a great extent |  |  |  |  |  |  |  |  |  |  |  |  |  | SARS-CoV-2 virus titer [4]: could successfully lower viral titers; also recorded: effectively decrease SARS-CoV-2 virus titer
2 | COc1ccc(-c2cccc(S(=O)(=O)N[C@@H](Cc3cccc(C(=N)N)c3)C(=O)N3CCC(NC(=O)NC4CCCCC4)CC3)c2)c(OC)c1 [MI-463] | did not influence the activity | did not influence the activity | could modulate | did not influence the activity | could modulate | did not bind to human serum albumin to a great extent | 0.121 | Low-extraction drug | 5.27 | 6.58 | 19.5 | 0.299 | slowly decreased from 180 min; also recorded: pronounced stability against biotransformation | Low-extraction drug | 9.25 | 0.289 | Low-extraction drug | 15.97 | 31.9 | Depletion of parent compound (in words) [8]: elevated depletion rates; Depletion of parent compound (in words) ([12]; rat hepatocytes, 10 µM, 0-300 min): elevated depletion rates; Ki [14]: very low, nanomolar; Ki [15]: very low, nanomolar
3 | COc1ccc(-c2cccc(S(=O)(=O)N[C@@H](Cc3cccc(C(=N)N)c3)C(=O)N3CCC(N)CC3)c2)c(OC)c1 [MI-472] |  |  |  |  |  |  | 0.190 | Low-extraction drug | 8.27 | 12 | 26.7 | 0.343 | significantly depleted even at 30 min | Intermediate-extraction drug | 10.61 | 0.305 | Intermediate-extraction drug | 16.85 | 35.6 | 
4 | COc1ccc(-c2cccc(S(=O)(=O)N[C@@H](Cc3cccc(C(=N)N)c3)C(=O)N3CCC(NC(=O)NC(C)(C)C)CC3)c2)c(OC)c1 [MI-485] |  |  |  |  |  |  | 0.183 | Low-extraction drug | 7.98 | 11.4 | 22.8 | 0.321 | significantly depleted even at 30 min | Intermediate-extraction drug | 9.93 | 0.314 | Intermediate-extraction drug | 17.33 | 37.8 | Ki ([14]; read-out: Ki): < 5 nM; Inhibition of H9N2 influenza virus replication [16]: showed inhibition
5 | COc1ccc(-c2cccc(S(=O)(=O)N[C@@H](Cc3cccc(C(=N)N)c3)C(=O)N3CCN(C(=O)NC4CCCCC4)CC3)c2)c(OC)c1 [MI-1900] | did not influence the activity | did not influence the activity | could modulate | did not influence the activity | could modulate | did not bind to human serum albumin to a great extent | 0.230 | Low-extraction drug | 10.03 | 16.1 | 10.5 | 0.212 | significantly depleted even at 30 min | Low-extraction drug | 6.56 | 0.298 | Low-extraction drug | 16.43 | 33.8 | Depletion of parent compound (in words) [8]: depleted at the highest speed; also recorded: rapidly; also recorded: depleted faster; CLint scaled ([11]; dog hepatocytes, 10 µM inhibitor, 5 × 10^5 cells/mL, 0-300 min, scaled to liver/bw): 10.5 mL/min/kg; SARS-CoV-2 virus titer [4]: could successfully lower viral titers; also recorded: effectively decrease SARS-CoV-2 virus titer; Ki [14]: very low, nanomolar; Ki [15]: very low, nanomolar
6 | CS(=O)(=O)N[C@@H](CCC(N)=O)C(=O)N[C@@H](Cc1ccccc1)C(=O)N[C@@H](CCCN=C(N)N)C(=O)c1nc2ccccc2s1 [N-0385, Ms-Gln-Phe-Arg-kbt] |  |  |  |  |  |  |  |  |  |  |  |  |  |  |  |  |  |  |  | IC50 [17]: […]; Inhibition of SARS-CoV-2 infection [18]: effective; Inhibition of SARS-CoV-2 infection [19]: effective
7 | CN(C)C(=O)COC(=O)Cc1ccc(OC(=O)c2ccc(NC(=N)N)cc2)cc1.CS(=O)(=O)O [camostate, camostate mesylate] |  |  |  |  |  |  |  |  |  |  |  |  |  |  |  |  |  |  |  | Outcome of clinical testing for COVID-19 [20]: failed during clinical testing
